The values below come from US20230026772A1, “DIBENZOPYRAN AMPK ACTIVATOR COMPOUNDS, COMPOSITIONS, METHODS AND USES THEREOF” (SOCIETE DES PRODUITS NESTLE S.A., priority 2019, published 2023).

For one experiment, the target named is T1, AMPKα2β1γ1 complex (Homo sapiens, UniProt P54646+Q9Y478).
T1 construct: His; made in house
Nature of the experiment: HTRF KinEASE activity assay with bacterially-expressed, phosphorylated purified AMPKα2β1γ1. Conditions: varying concentrations, 30 mins incubation, cell free; FIG. 1. In kind it is biochemical. The procedure: Varying concentrations of compound 1 and compound 2 were incubated with phosphorylated purified AMPK α2β1γ1 for 30 mins. AMPK activity was determined using the HTRF KinEASE assay kit and results are presented as the ratio of 665/620 nm (STK1 phosphorylation).
The AMPKα2β1γ1 complex was expressed in bacteria and purified through the His-α subunit by nickel purification, purified through gel filtration and phosphorylated by incubation with CaMKKβ, and then further purified through a final gel filtration purification step. Phosphorylated purified AMPK was incubated with varying concentrations of ligand for 30 mins along with substrate and reagents from the HTRF-KinEASE Cisbio assay kit (STK S1 Kit). Phosphorylation of the substrate was measured by incubating with donor and acceptor antibodies for 2 h at room temperature as per the manufacturer's protocol (Coulerie et al., (2016), J Nat Prod. 2016 Nov. 23; 79(11):2856-2864. Epub 2016 Oct. 28.) and phosphorylated peptide detected by performing HTRF. […] Compound 1 is 3-methoxy-6H-benzo[c]chromene-1,8-diol and Compound 2 is 8-methoxy-6H-benzo[c]chromene-3,10-diol.

Experiment [1] has as its system AMPK complexes containing β1 S108A mutation at the ADaM site. The experiment is described as follows: pACC HTRF assay in AMPKβ1/β2 double knockout U-2 OS cells stably expressing β1 S108A mutant. In kind it is cell-based, human. Conditions: AMPKβ1β2 double knockout cells stably expressing β1 S108A mutant, varying concentrations, 30 mins at 37 C; FIG. 3. The procedure:
(§1) The β1 WT or β1 S108A mutant were stably expressed in AMPKβ1β2 double knockout cells and treated with varying concentrations of compound 1 or compound 2 for 30 mins at 37 C. Phosphorylation of ACC was assessed using the HTRF Cisbio (pACC kit).
(§2) AMPKβ1/β2 double knockout U-2 OS Flp-In™ T-Rex™ cell lines were generated and cells were genotyped and analysed by Western blotting to confirm that there was a complete knockout of AMPKβ1/β2. We took these AMPKβ1/β2 double knockout cells, and re-introduced the expression of human β1 wild-type (WT) or a β1 Serine 108 to alanine mutation (S108A). This was achieved using the Flp-In™ system (Invitrogen) present in this cell line and stable cells expressing β1 WT or a β1 S108A mutant were generated according to the manufacturers' protocols.
(§3) Cells stably expressing β1 WT or a β1 S108A mutant were treated with varying concentrations of compound 1 and compound 2 and subjected to the pACC HTRF (Cisbio) assay to determine the level of phosphorylation of the AMPK substrate, ACC, in cell lysates, as in Example 2.

Experiment [2] concerns AMPK complexes containing β1 WT subunit. Nature of the experiment: pACC HTRF assay in AMPKβ1/β2 double knockout U-2 OS cells stably expressing β1 WT. In kind it is cell-based, human. Conditions: AMPKβ1β2 double knockout cells stably expressing β1 WT, varying concentrations, 30 mins at 37 C; FIG. 3 and FIG. 4. The procedure: as §1
(§4) U-2 OS cells AMPKβ1β2 double knockout cells stably expressing AMPK β1 or β2 were treated with varying concentrations of Compound 1 or compound 2 for 30 mins at 37 C.
(§5) Phosphorylation of ACC was assessed using the HTRF Cisbio (pACC kit).
as §2, §3
We took AMPKβ1/β2 double knockout cells, and re-introduced the expression of human β1 WT or β2 WT isoforms. […]

Experiment [3] has as its system AMPK complexes containing the β2 isoform subunit. The experiment is described as follows: pACC HTRF assay in AMPKβ1/β2 double knockout U-2 OS cells stably expressing β2 WT. The class given is cell-based, human. Conditions: AMPKβ1β2 double knockout cells stably expressing β2 WT isoform, varying concentrations, 30 mins at 37 C; FIG. 4. The protocol:
as §4, §5
We took AMPKβ1/β2 double knockout cells, and re-introduced the expression of human β1 WT or β2 WT isoforms. […] Cells stably expressing β1 WT or β2 WT were treated with varying concentrations of compound 1 and compound 2, and subjected to the pACC HTRF (Cisbio) assay to determine the level of phosphorylation of the AMPK substrate, ACC, in cell lysates, as in example 2. […] This activation profile is characteristic of activators that bind to the ADaM site and consistent with previous studies showing that ADaM-site activators have poorer activation of β2-containing complexes in vitro and in cells.

Experiment [4] deals with AMPK (phosphorylation of ACC) in U-2 OS Flp-In T-REx mammalian cells. Nature of the experiment: pACC HTRF (Cisbio) assay in U-2 OS Flp-In T-REx cells. Conditions: varying concentrations, 30 mins at 37 C, FIG. 2. In kind it is cell-based. The protocol:
U-2 OS cells were treated with varying concentrations of compound 1 or compound 2 for 30 mins at 37 C. Phosphorylation of ACC was assessed using the HTRF Cisbio (pACC kit).
U-2 OS Flp-In T-REx cells were seeded at 50 K in a 96-well plate and left overnight at 37 C in DMEM GlutaMAX (Thermo Fisher Scientific) supplemented with 10% (vol/vol) FBS and 100 U/ml penicillin G, and 100 μg/ml streptomycin. Cells were treated for 30 mins with varying concentrations of Compound 1 in media lacking FBS and then cells were lysed in 50 μl of Cisbio lysis buffer #1 supplemented with blocking solution as per the manufacturer's protocol (Cisbio). Cells were lysed for 30 mins at room temperature before 16 μl of lysate was incubated with 4 μl of the HTRF antibodies (1:40 dilution of the acceptor and donor (p) ACC antibodies, as per the manufacturers protocol). Lysates were incubated overnight with the antibodies before 665 nm/620 nm ratio was determined using a MolecularDevices i3 plate reader (with a HTRF cartridge add-on). The results are plotted as fold activation compared to the respective AMPK complex without any compound.

T1 sequence (P54646 whole entry): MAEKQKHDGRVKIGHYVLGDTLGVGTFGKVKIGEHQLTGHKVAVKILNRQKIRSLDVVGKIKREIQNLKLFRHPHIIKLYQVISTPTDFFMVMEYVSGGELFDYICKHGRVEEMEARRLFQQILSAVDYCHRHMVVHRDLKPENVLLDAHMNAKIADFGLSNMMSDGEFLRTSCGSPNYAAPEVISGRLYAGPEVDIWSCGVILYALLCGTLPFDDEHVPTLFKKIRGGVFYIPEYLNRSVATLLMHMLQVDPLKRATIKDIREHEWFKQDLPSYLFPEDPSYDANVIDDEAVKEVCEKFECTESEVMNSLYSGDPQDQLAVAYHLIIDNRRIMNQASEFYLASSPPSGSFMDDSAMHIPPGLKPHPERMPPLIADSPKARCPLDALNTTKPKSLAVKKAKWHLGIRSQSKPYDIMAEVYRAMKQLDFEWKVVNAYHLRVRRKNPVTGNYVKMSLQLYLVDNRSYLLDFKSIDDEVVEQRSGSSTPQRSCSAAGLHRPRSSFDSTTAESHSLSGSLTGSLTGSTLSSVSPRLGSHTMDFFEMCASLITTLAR
T1 sequence (Q9Y478 whole entry): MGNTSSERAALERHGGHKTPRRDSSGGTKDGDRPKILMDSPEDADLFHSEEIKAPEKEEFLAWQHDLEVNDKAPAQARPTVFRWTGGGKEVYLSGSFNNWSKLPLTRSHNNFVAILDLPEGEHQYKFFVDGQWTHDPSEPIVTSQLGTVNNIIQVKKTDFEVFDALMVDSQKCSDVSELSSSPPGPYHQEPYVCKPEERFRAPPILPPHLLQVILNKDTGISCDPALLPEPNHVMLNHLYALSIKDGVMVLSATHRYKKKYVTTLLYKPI
T1 sequence (P54619 whole entry partner): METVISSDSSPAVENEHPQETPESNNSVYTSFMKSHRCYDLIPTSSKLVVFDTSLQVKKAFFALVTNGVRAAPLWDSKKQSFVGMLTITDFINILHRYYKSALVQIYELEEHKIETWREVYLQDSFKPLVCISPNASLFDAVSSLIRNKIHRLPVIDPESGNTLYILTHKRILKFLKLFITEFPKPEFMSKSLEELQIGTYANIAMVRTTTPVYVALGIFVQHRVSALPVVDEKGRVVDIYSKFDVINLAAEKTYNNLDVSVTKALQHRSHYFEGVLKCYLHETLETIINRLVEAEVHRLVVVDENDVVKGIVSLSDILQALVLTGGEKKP

For `COc1cc(O)c2c(c1)COc1cc(O)ccc1-2` [Compound 2, 8-methoxy-6H-benzo[c]chromene-3,10-diol], the “AMPK activity (665 nm/620 nm ratio, STK1 substrate phosphorylation)” value at AMPKα2β1γ1 complex is on record as “allosterically activate AMPKα2β1γ1 in a dose-dependent manner”. Moreover, the “Phosphorylation of ACC (pACC, fold increase relative to untreated cells)” value in experiment [1] was “not able to increase pACC”; in experiment [2], “able to dose-dependently increase pACC”; in experiment [3], “not able to increase pACC”. In addition, the “Phosphorylation of ACC (fold activation relative to untreated cells)” value in experiment [4] is given as “increase the phosphorylation of the AMPK substrate, ACC, in a dose-dependent manner”.
Turning to `COc1cc(O)c2c(c1)OCc1cc(O)ccc1-2` [Compound 1, 3-methoxy-6H-benzo[c]chromene-1,8-diol], the “AMPK activity (665 nm/620 nm ratio, STK1 substrate phosphorylation)” value at AMPKα2β1γ1 complex was “allosterically activate AMPKα2β1γ1 in a dose-dependent manner”. For the same compound, the entries for the “Phosphorylation of ACC (pACC, fold increase relative to untreated cells)” value in experiment [1], in experiment [2] and in experiment [3] were “not able to increase pACC”, “able to dose-dependently increase pACC” and “not able to increase pACC”, respectively. Besides, the “Phosphorylation of ACC (fold activation relative to untreated cells)” value in experiment [4] is listed as “increase the phosphorylation of the AMPK substrate, ACC, in a dose-dependent manner”.
